From ChEMBL document CHEMBL4808179 (Bioorg Med Chem Lett, 2021)
In brackets after ≈: the same amount, converted by molar mass.

Columns and labels:
Enterococcus faecium [1] = assay: Potency index, ratio of Vancomycin MIC to test compound MIC for antibacterial activity against vancomycin resistant Enterococcus faecium Van A HS-06188 assessed as inhibition of bacterial growth; type: functional
Enterococcus faecium [2] = assay: Potency index, ratio of Vancomycin MIC to test compound MIC for antibacterial activity against vancomycin resistant Enterococcus faecium Van B V(R) assessed as inhibition of bacterial growth; type: functional
Enterococcus faecium [3] = assay: Antibacterial activity against vancomycin resistant Enterococcus faecium Van A HS-06188 assessed as inhibition of bacterial growth; type: functional
Enterococcus faecium [4] = assay: Antibacterial activity against vancomycin resistant Enterococcus faecium Van M HS-0847 assessed as inhibition of bacterial growth; type: functional
Enterococcus faecium [5] = assay: Antibacterial activity against vancomycin resistant Enterococcus faecium Van A HS-0649 assessed as inhibition of bacterial growth; type: functional
Staphylococcus aureus [6] = assay: Antibacterial activity against methicillin-resistant Staphylococcus aureus USA300 assessed as bacterial growth inhibition; type: functional
Staphylococcus aureus [7] = assay: Antibacterial activity against methicillin-resistant Staphylococcus aureus HS-663 assessed as bacterial growth inhibition; type: functional
Escherichia coli = assay: Antibacterial activity against Escherichia coli AB1157 assessed as bacterial growth inhibition; type: functional
Enterococcus faecium [8] = assay: Antibacterial activity against vancomycin resistant Enterococcus faecium Van B V(R) assessed as inhibition of bacterial growth; type: functional
Enterococcus faecium [9] = assay: Potency index, ratio of Vancomycin MIC to test compound MIC for antibacterial activity against vancomycin resistant Enterococcus faecium Van M HS-0847 assessed as inhibition of bacterial growth; type: functional
Acinetobacter baumannii = assay: Antibacterial activity against Acinetobacter baumannii assessed as bacterial growth inhibition; type: functional
Staphylococcus aureus [10] = assay: Potency index, ratio of Vancomycin MIC to test compound MIC for antibacterial activity against methicillin-susceptible Staphylococcus aureus Newman assessed as bacterial growth inhibition; type: functional
Enterococcus faecium [11] = assay: Antibacterial activity against vancomycin resistant Enterococcus faecium Van M HS-08267 assessed as inhibition of bacterial growth; type: functional
Staphylococcus aureus [12] = assay: Antibacterial activity against vancomycin-intermediate Staphylococcus aureus Mu50 assessed as bacterial growth inhibition; type: functional
Staphylococcus aureus [13] = assay: Potency index, ratio of Vancomycin MIC to test compound MIC for antibacterial activity against vancomycin-intermediate Staphylococcus aureus Mu50 assessed as bacterial growth inhibition; type: functional
Enterococcus faecium [14] = assay: Potency index, ratio of Vancomycin MIC to test compound MIC for antibacterial activity against vancomycin resistant Enterococcus faecium Van M HS-08267 assessed as inhibition of bacterial growth; type: functional
Staphylococcus aureus [15] = assay: Antibacterial activity against methicillin-susceptible Staphylococcus aureus Newman assessed as bacterial growth inhibition; type: functional
L02 [16] = assay: Cytotoxicity against human L02 cells assessed as reduction in cell viability < 6.25 uM; type: cell-based
HEK-293T = assay: Cytotoxicity against human HEK293T cells assessed as reduction in cell viability upto 25 uM; type: cell-based
L02 [17] = assay: Cytotoxicity against human L02 cells assessed as reduction in cell viability >= 12.5 uM; type: cell-based

CN[C@H](CC(C)C)C(=O)N[C@H]1C(=O)N[C@@H](CC(N)=O)C(=O)N[C@H]2C(=O)N[C@H]3C(=O)N[C@H](C(=O)N[C@H](C(=O)NNCc4ccc(-c5ccccc5)cc4)c4cc(O)cc(O)c4-c4cc3ccc4O)[C@H](O)c3ccc(c(Cl)c3)Oc3cc2cc(c3O[C@@H]2O[C@H](CO)[C@@H](O)[C@H](O)[C@H]2O[C@H]2C[C@](C)(N)[C@H](O)[C@H](C)O2)Oc2ccc(cc2Cl)[C@H]1O
Ratio (Enterococcus faecium [1]): 8 | Ratio (Enterococcus faecium [2]): 8 | MIC (Enterococcus faecium [3]): 8 µg/mL (≈ 4.91 µM) | MIC (Enterococcus faecium [4]): 8 µg/mL (≈ 4.91 µM) | MIC (Enterococcus faecium [5]): 8 µg/mL (≈ 4.91 µM) | MIC (Staphylococcus aureus [6]): 0.5 µg/mL (≈ 0.307 µM) | MIC (Staphylococcus aureus [7]): < 0.0625 µg/mL | MIC (Escherichia coli): 64 µg/mL (≈ 39.3 µM) | MIC (Enterococcus faecium [8]): 4 µg/mL (≈ 2.45 µM) | Ratio (Enterococcus faecium [9]): 8 | MIC (Acinetobacter baumannii): 64 µg/mL (≈ 39.3 µM) | Ratio (Staphylococcus aureus [10]): 32 | MIC (Enterococcus faecium [11]): 4 µg/mL (≈ 2.45 µM) | MIC (Staphylococcus aureus [12]): 1 µg/mL (≈ 0.614 µM) | Ratio (Staphylococcus aureus [13]): 2 | Ratio (Enterococcus faecium [14]): 8 | MIC (Staphylococcus aureus [15]): ≤ 0.0625 µg/mL

CN[C@H](CC(C)C)C(=O)N[C@H]1C(=O)N[C@@H](CC(N)=O)C(=O)N[C@H]2C(=O)N[C@H]3C(=O)N[C@H](C(=O)N[C@H](C(=O)N/N=C/c4ccc(-c5ccccc5)cc4)c4cc(O)cc(O)c4-c4cc3ccc4O)[C@H](O)c3ccc(c(Cl)c3)Oc3cc2cc(c3O[C@@H]2O[C@H](CO)[C@@H](O)[C@H](O)[C@H]2O[C@H]2C[C@](C)(N)[C@H](O)[C@H](C)O2)Oc2ccc(cc2Cl)[C@H]1O
Ratio (Enterococcus faecium [1]): 8 | Ratio (Enterococcus faecium [2]): 8 | MIC (Enterococcus faecium [3]): 4 µg/mL (≈ 2.46 µM) | MIC (Enterococcus faecium [4]): 4 µg/mL (≈ 2.46 µM) | MIC (Enterococcus faecium [5]): 4 µg/mL (≈ 2.46 µM) | MIC (Staphylococcus aureus [6]): 0.25 µg/mL (≈ 0.154 µM) | MIC (Staphylococcus aureus [7]): 0.0625 µg/mL (≈ 0.0384 µM) | MIC (Escherichia coli): 128 µg/mL (≈ 78.6 µM) | MIC (Enterococcus faecium [8]): 2 µg/mL (≈ 1.23 µM) | Ratio (Enterococcus faecium [9]): 8 | MIC (Acinetobacter baumannii): > 128 µg/mL | Ratio (Staphylococcus aureus [10]): 32 | MIC (Enterococcus faecium [11]): 2 µg/mL (≈ 1.23 µM) | MIC (Staphylococcus aureus [12]): 2 µg/mL (≈ 1.23 µM) | Ratio (Staphylococcus aureus [13]): 2 | Ratio (Enterococcus faecium [14]): 8 | MIC (Staphylococcus aureus [15]): ≤ 0.0625 µg/mL

CN[C@H](CC(C)C)C(=O)N[C@H]1C(=O)N[C@@H](CC(N)=O)C(=O)N[C@H]2C(=O)N[C@H]3C(=O)N[C@H](C(=O)N[C@H](C(=O)N/N=C/c4ccc(-c5ccc(Cl)cc5)cc4)c4cc(O)cc(O)c4-c4cc3ccc4O)[C@H](O)c3ccc(c(Cl)c3)Oc3cc2cc(c3O[C@@H]2O[C@H](CO)[C@@H](O)[C@H](O)[C@H]2O[C@H]2C[C@](C)(N)[C@H](O)[C@H](C)O2)Oc2ccc(cc2Cl)[C@H]1O
Ratio (Enterococcus faecium [1]): 8 | Ratio (Enterococcus faecium [2]): 8 | MIC (Enterococcus faecium [3]): 16 µg/mL (≈ 9.63 µM) | MIC (Enterococcus faecium [4]): 4 µg/mL (≈ 2.41 µM) | MIC (Enterococcus faecium [5]): 4 µg/mL (≈ 2.41 µM) | MIC (Staphylococcus aureus [6]): 0.5 µg/mL (≈ 0.301 µM) | MIC (Staphylococcus aureus [7]): 0.0625 µg/mL (≈ 0.0376 µM) | MIC (Escherichia coli): 128 µg/mL (≈ 77 µM) | MIC (Enterococcus faecium [8]): 8 µg/mL (≈ 4.81 µM) | Ratio (Enterococcus faecium [9]): 8 | MIC (Acinetobacter baumannii): > 128 µg/mL | Ratio (Staphylococcus aureus [10]): 4 | MIC (Enterococcus faecium [11]): 4 µg/mL (≈ 2.41 µM) | MIC (Staphylococcus aureus [12]): 2 µg/mL (≈ 1.2 µM) | Ratio (Staphylococcus aureus [13]): 2 | Ratio (Enterococcus faecium [14]): 8 | MIC (Staphylococcus aureus [15]): 0.5 µg/mL (≈ 0.301 µM)

CN[C@H](CC(C)C)C(=O)N[C@H]1C(=O)N[C@@H](CC(N)=O)C(=O)N[C@H]2C(=O)N[C@H]3C(=O)N[C@H](C(=O)N[C@H](C(=O)NNCc4ccc(-c5ccc(Cl)cc5)cc4)c4cc(O)cc(O)c4-c4cc3ccc4O)[C@H](O)c3ccc(c(Cl)c3)Oc3cc2cc(c3O[C@@H]2O[C@H](CO)[C@@H](O)[C@H](O)[C@H]2O[C@H]2C[C@](C)(N)[C@H](O)[C@H](C)O2)Oc2ccc(cc2Cl)[C@H]1O
Ratio (Enterococcus faecium [1]): 8 | Ratio (Enterococcus faecium [2]): 8 | Activity (L02 [16]): Toxic | MIC (Enterococcus faecium [3]): 8 µg/mL (≈ 4.81 µM) | MIC (Enterococcus faecium [4]): 8 µg/mL (≈ 4.81 µM) | MIC (Enterococcus faecium [5]): 16 µg/mL (≈ 9.62 µM) | MIC (Staphylococcus aureus [6]): 1 µg/mL (≈ 0.601 µM) | Activity (HEK-293T): Non-Toxic | MIC (Staphylococcus aureus [7]): 0.0625 µg/mL (≈ 0.0376 µM) | MIC (Escherichia coli): 128 µg/mL (≈ 76.9 µM) | MIC (Enterococcus faecium [8]): 4 µg/mL (≈ 2.4 µM) | Ratio (Enterococcus faecium [9]): 8 | MIC (Acinetobacter baumannii): 128 µg/mL (≈ 76.9 µM) | Ratio (Staphylococcus aureus [10]): 32 | MIC (Enterococcus faecium [11]): 4 µg/mL (≈ 2.4 µM) | MIC (Staphylococcus aureus [12]): 4 µg/mL (≈ 2.4 µM) | Ratio (Staphylococcus aureus [13]): 2 | Ratio (Enterococcus faecium [14]): 8 | MIC (Staphylococcus aureus [15]): ≤ 0.0625 µg/mL

CN[C@H](CC(C)C)C(=O)N[C@H]1C(=O)N[C@@H](CC(N)=O)C(=O)N[C@H]2C(=O)N[C@H]3C(=O)N[C@H](C(=O)N[C@H](C(=O)N[C@@H](CS)C(=O)O)c4cc(O)cc(O)c4-c4cc3ccc4O)[C@H](O)c3ccc(c(Cl)c3)Oc3cc2cc(c3O[C@@H]2O[C@H](CO)[C@@H](O)[C@H](O)[C@H]2O[C@H]2C[C@](C)(N)[C@H](O)[C@H](C)O2)Oc2ccc(cc2Cl)[C@H]1O
Ratio (Enterococcus faecium [1]): 8 | Ratio (Enterococcus faecium [2]): 8 | MIC (Enterococcus faecium [3]): 16 µg/mL (≈ 10.3 µM) | MIC (Enterococcus faecium [4]): 8 µg/mL (≈ 5.15 µM) | MIC (Enterococcus faecium [5]): > 128 µg/mL | MIC (Staphylococcus aureus [6]): 32 µg/mL (≈ 20.6 µM) | MIC (Staphylococcus aureus [7]): 2 µg/mL (≈ 1.29 µM) | MIC (Escherichia coli): > 128 µg/mL | MIC (Enterococcus faecium [8]): 8 µg/mL (≈ 5.15 µM) | Ratio (Enterococcus faecium [9]): 8 | Activity (L02 [17]): Toxic | MIC (Acinetobacter baumannii): > 128 µg/mL | MIC (Enterococcus faecium [11]): 8 µg/mL (≈ 5.15 µM) | MIC (Staphylococcus aureus [12]): 128 µg/mL (≈ 82.5 µM) | Ratio (Enterococcus faecium [14]): 8 | MIC (Staphylococcus aureus [15]): 64 µg/mL (≈ 41.2 µM)
